The target in one assay is T1, CXCR4-YFP (Homo sapiens, UniProt P61073).
T1 construct: expressed in transfected cells; host or cells: HEK293 cells
The experiment in a line: Internalization of YFP-tagged CXCR4 receptors in HEK293 cells. The assay is classed as cell-based. Conditions: for inhibition of NUCC-390-induced CXCR4-YFP internalization: AMD3100 1 μM.

Assay [1] concerns the target T2, CXCR4 (Homo sapiens, UniProt P61073). Put plainly: Calcium imaging ((Ca)i mobilization) assay, fura-2, C8161 melanoma cells. In kind it is cell-based. As to conditions: for effect on SDF-1-induced (Ca)i response: test compounds 10 μM; for Pharmacology: Table 2, agonist or antagonist; for IC50: multiple concentrations, dose-response, read-out: estimated IC50 (antagonism of SDF-1 (Ca)i response); for Ca^2+ Assay: Table 1, calcium imaging behavior; for compound's (Ca)i response in presence of CXCR4 antagonist AMD3100: AMD3100 1 μM where stated; for own (Ca)i response (agonist effect): compounds 10 μM where stated, SDF-1 100 nM. Set-up: human melanoma cell line C8161 was initially used, which expresses numerous human CXCR4 receptors; endogenous in cells; host or cells: C8161 human melanoma cells. An excerpt: The initial assay for examining the activity of different molecules was based on the fact that activation of CXCR4 receptors produces an increase in the intracellular free Ca^2+ concentration (Ca)i. This signal can easily be observed using a fluorescent Ca^2+ sensing dye such as fura-2. The quantitative nature of this assay makes it ideal for screening purposes. Moreover, the assay can also distinguish potential antagonists from potential agonists. The aggressive human melanoma cell line C8161 was initially used, which expresses numerous human CXCR4 receptors and produces strong (Ca)I signals when stimulated with SDF-1 (FIG. 3). In the assay, cells were usually stimulated twice with SDF-1. […] To test a drug, the compound in question was usually added prior to the second stimulation with SDF-1. At this point it was possible to observe whether the compound itself acted as an agonist by giving its own response or if it reduced the magnitude of the second response to SDF-1. […] Each of the four antagonists were then assayed at multiple concentrations to obtain a dose-response relationship and an estimated IC50. Antagonists NUCC-388, 397, 392, and 51420 had IC50 values of 0.3 μM, 3 μM, 1 μM, and 1 μM respectively.

The target of assay [2] is T2, CXCR4. Put plainly: (Ca)i mobilization assay using CXCR4 expressing U87 cells. In kind it is cell-based. Set-up: host or cells: U87 glioblastoma cells.
The next assay relates to C8161 cells. Put plainly: Chemotaxis of C8161 cells, Boyden chamber assay. The assay is classed as cell-based, human. Conditions: SDF-1 100 nM, NUCC-390 10 μM, p<0.01, n=6. The text has this: Chemokines are well known for their ability to stimulate chemotaxis of leukocytes and stem cells. In order to further establish the biological activity of the CXCR4 agonists, the ability of SDF-1 and NUCC-390 to produce chemotaxis of C8161 cells was compared using a Boyden chamber assay.

Assay [3] deals with T2, CXCR4. The experiment in a line: ERK activation (pERK, Western blot) in C8161 cells. The assay is classed as cell-based. The arrangement: human melanoma cell line C8161 was initially used, which expresses numerous human CXCR4 receptors; endogenous in cells; host or cells: C8161 human melanoma cells. Conditions: SDF-1 100 nM, NUCC-390 10 μM, 30 min. An excerpt: To further explore the agonist potential of compound NUCC-390, changes in signaling downstream of CXCR4 were examined. For these experiments, lysates were collected from treated C8161 cells and analyzed them using Western blot. […] That drug NUCC-390 has the capability of stimulating signaling activity downstream of CXCR4 receptors further supports the observation that NUCC-390 acts as a CXCR4 agonist.

The mark [4] stands for this setting: C8161 cells, listed as NUCC-398.

Entries after “also recorded” stand apart in the source; their conditions may differ.

T2 sequence (P61073 whole entry): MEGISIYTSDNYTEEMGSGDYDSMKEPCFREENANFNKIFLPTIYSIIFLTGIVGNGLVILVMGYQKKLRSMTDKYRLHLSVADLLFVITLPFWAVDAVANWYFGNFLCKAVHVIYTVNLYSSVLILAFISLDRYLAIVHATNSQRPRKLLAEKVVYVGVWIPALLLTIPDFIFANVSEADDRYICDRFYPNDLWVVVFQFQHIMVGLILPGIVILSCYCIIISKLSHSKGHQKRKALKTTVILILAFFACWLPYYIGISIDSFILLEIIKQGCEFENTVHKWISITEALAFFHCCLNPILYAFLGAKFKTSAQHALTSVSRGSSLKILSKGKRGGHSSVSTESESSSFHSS
T1 sequence (P61073 whole entry): as above

For the compound `c1cc(CN2CCCNCCNCCCNCC2)ccc1CN1CCCNCCNCCCNCC1` [AMD3100, reference compound], the “inhibition of NUCC-390-induced CXCR4-YFP internalization” value against CXCR4-YFP is given as “blocks internalization”; against CXCR4-YFP (listed as AMD-3100) it was “completely inhibited”. The “effect on SDF-1-induced (Ca)i response” value on CXCR4 [1] (C8161 cells) is reported as “completely blocked stimulation with SDF-1; also recorded: blocked the effects of SDF-1”.
`Cc1ncsc1CCn1nc(C(=O)NC2CC2)c2c1CCN(Cc1ccc3c(c1)OCO3)C2` [NUCC-0000387]: the Pharmacology result at CXCR4 [1] was “Agonist”.
With `CN(C)CCNC1CCc2c(c(C(=O)N(C)Cc3ccccc3)nn2C)C1` (stereo not drawn) [NUCC-0000388], the “inhibition of NUCC-390-induced CXCR4-YFP internalization” value against CXCR4-YFP was “completely inhibited”. In addition, on CXCR4 [1] (C8161 cells), the “inhibition of NUCC-390-induced (Ca)i response” value is on record as “inhibited” and the IC50 was 300 nM. Besides, on CXCR4 [1] (C8161 cells, listed as NUCC-388), the “effect on SDF-1-induced (Ca)i response” value is on record as “antagonized the effects of SDF-1; also recorded: blocks the effect of SDF-1; also recorded: completely inhibited the second addition of SDF-1”. For the same compound, on CXCR4 [1], the “Ca^2+ Assay” value is reported as “Antagonist” and the Pharmacology result is given as “Antagonist”.
For the compound `COC(=O)c1c(NC(=O)C2CCOC2)c2cc(NCC(C)Cc3ccc4c(c3)OCO4)cnc2n1CCCc1ccccc1` (stereo not drawn) [NUCC-0000392], at CXCR4 [1] (C8161 cells), the IC50 is 1000 nM and the “effect on SDF-1-induced (Ca)i response” value is “antagonized the effects of SDF-1”. Also, the Pharmacology entry on CXCR4 [1] is “Antagonist”.
As for `COC(=O)c1c(NC(=O)[C@H]2CCOC2)c2cc(NC[C@H](C)Cc3ccc4c(c3)OCO4)cnc2n1CCCc1ccccc1` [NUCC-0000392], the “Ca^2+ Assay” value at CXCR4 [1] was “Antagonist”.
`COCCn1c(C(=O)OC)c(NC(=O)CCc2ccccc2)c2cc(NCCC(C)c3ccccc3)cnc21` (stereo not drawn) [NUCC-0000393]: on CXCR4 [1], the Pharmacology entry was “Agonist”.
Regarding `COCCNC(=O)c1nn(CCC(C)C)c2c1CN(Cc1ncc[nH]1)CC2` [NUCC-0000398, 5-((1H-imidazol-2-yl)methyl)-1-isopentyl-N-(2-methoxyethyl)-4,5,6,7-tetrahydro-1H-pyrazolo(4,3-c)pyridine-3-carboxamide], on CXCR4 [1] (setting [4]), the “compound's (Ca)i response in presence of CXCR4 antagonist AMD3100” value (from here on “compound's (Ca)i response in presence”) was “completely inhibited; also recorded: inhibited by AMD3100” and the “own (Ca)i response (agonist effect)” value was “produced their own response; also recorded: robust agonist activity; also recorded: Agonist effects”. Besides, at CXCR4 [1], the “Ca^2+ Assay” value was “Agonist” and the Pharmacology entry is reported as “Agonist”.
Take `CCCn1nc(C(=O)N2CCCCC2)c2c1CCC(NCCc1cccnc1)C2` (stereo not drawn) [NUCC-0054118, Piperidin-1-yl(1-propyl-5-((2-(pyridin-3-yl)ethyl)amino)-4,5,6,7-tetrahydro-1H-indazol-3-yl)methanone]: on CXCR4 [1] (C8161 cells), the “compound's (Ca)i response in presence” value is reported as “inhibited by AMD3100” and the “own (Ca)i response (agonist effect)” value is “robust agonist activity”. On CXCR4 [1], the “Ca^2+ Assay” value is reported as “Antagonist” and the Pharmacology entry is “Agonist”.
For `CCCn1nc(C(=O)N2CCCCC2)c2c1CCC(NCCCN1CCCC1=O)C2` (stereo not drawn) [NUCC-0054120, 1-(3-((3-(Piperidine-1-carbonyl)-1-propyl-4,5,6,7-tetrahydro-1H-indazol-5-yl)amino)propyl)pyrrolidin-2-one], at CXCR4 [1] (C8161 cells), the IC50 is 1000 nM and the “effect on SDF-1-induced (Ca)i response” value is given as “antagonized the effects of SDF-1”. Further, at CXCR4 [1], the “Ca^2+ Assay” value is given as “Agonist” and the Pharmacology result was “Antagonist”.
`CCCn1nc(C(=O)N2CCCCC2)c2c1CCC(NCCCN1CCOCC1)C2` (stereo not drawn) [NUCC-0054127]: on CXCR4 [1] (C8161 cells), the “compound's (Ca)i response in presence” value was “inhibited by AMD3100” and the “own (Ca)i response (agonist effect)” value is “robust agonist activity”. For the same compound, on CXCR4 [1], the “Ca^2+ Assay” value is “Agonist” and the Pharmacology result is “Agonist”.
For the compound `Cn1nc(C(=O)N2CCCCC2)c2c1CCC(NCCCN1CCOCC1)C2` (stereo not drawn) [NUCC-0176288], at CXCR4 [2], the “own (Ca)i response (agonist effect)” value is “robust calcium response”. Moreover, the “effect on SDF-1-induced (Ca)i response” value on CXCR4 [1] (C8161 cells) is given as “blocks the effect of SDF-1”. The Pharmacology entry on CXCR4 [1] is “Antagonist”.
Regarding `Cn1nc(C(=O)N2CCCCC2)c2c1CCC(NCc1ccc(F)cc1)C2` (stereo not drawn) [NUCC-0176290], on CXCR4 [1] (C8161 cells), the “own (Ca)i response (agonist effect)” value is “robust calcium response” and the “effect on SDF-1-induced (Ca)i response” value is on record as “blocks the effect of SDF-1”. Further, the Pharmacology result at CXCR4 [1] was “Antagonist”.
In the case of `CCCn1nc(C(=O)N(C)Cc2ccccc2)c2c1CCC(NCCc1ccncc1)C2` (stereo not drawn) [NUCC-0176299], the “own (Ca)i response (agonist effect)” value on CXCR4 [2] was “robust calcium response”. Further, the “effect on SDF-1-induced (Ca)i response” value at CXCR4 [1] (C8161 cells) is given as “blocks the effect of SDF-1”. Besides, the Pharmacology entry on CXCR4 [1] is reported as “Antagonist”.
Consider `CCCn1nc(C(=O)N(C)Cc2ccccc2)c2c1CCC(NCCCN1CCOCC1)C2` (stereo not drawn) [NUCC-0176301], for which, on CXCR4 [1] (C8161 cells), the “compound's (Ca)i response in presence” value is “prevented calcium signaling” and the “own (Ca)i response (agonist effect)” value is reported as “robust calcium response”. For the same compound, on CXCR4 [1], the Pharmacology result was “Agonist”.
As for `CCCn1nc(C(=O)N(C)Cc2ccccc2)c2c1CCC(NCc1ccc(F)cc1)C2` (stereo not drawn) [NUCC-0176303], the “own (Ca)i response (agonist effect)” value at CXCR4 [1] (C8161 cells) is “robust calcium response”. At CXCR4 [1], the Pharmacology result was “Agonist”.
In the case of `CCCn1nc(C(=O)N2CCCCC2)c2c1CCC(NCc1ccc(F)cc1)C2` (stereo not drawn) [NUCC-0176306], at CXCR4 [1] (C8161 cells), the “compound's (Ca)i response in presence” value was “prevented calcium signaling” and the “own (Ca)i response (agonist effect)” value is “robust calcium response”. Also, the Pharmacology entry at CXCR4 [1] was “Agonist”.
The corresponding values for `CCCn1nc(C(=O)N(C)C)c2c1CCC(NCCc1cccnc1)C2` (stereo not drawn) [NUCC-0176308] are “prevented calcium signaling”, “robust calcium response” and “Agonist”.
Regarding `CCCn1nc(C(=O)N(C)C)c2c1CCC(NCCCN1CCCC1=O)C2` (stereo not drawn) [NUCC-0176311], the “own (Ca)i response (agonist effect)” value on CXCR4 [1] (C8161 cells) was “robust calcium response”. In addition, on CXCR4 [1], the Pharmacology result is on record as “Agonist”.
In the case of “SDF-1: cognate agonist for CXCR4, the 93 amino acid protein CXCL12 (SDF-1)”, in the assay with C8161 cells, the chemotaxis result is “robust chemotactic activity”. Moreover, the CXCR4-YFP receptor internalization result with CXCR4-YFP (2 hours, SDF-1 100 nM, NUCC-390 10 μM) is listed as “pronounced internalization of CXCR4-YFP; also recorded: causes most of the CXCR4 receptor to become internalized”. Moreover, the “level of phosphorylated ERK (pERK)” value with CXCR4 [3] was “increased levels of phosphorylated ERK; also recorded: Increase in pERK”. Also, the “own (Ca)i response (agonist effect)” value with CXCR4 [1] (C8161 cells) is given as “two strong (Ca)i responses”.

Usually IC50 stands for the concentration that gives 50% inhibition.

These data come from US10435375B2, “CXCR4 chemokine receptor modulators” (NORTHWESTERN UNIVERSITY, priority 2015, dated 2019).
